In US12427134B2, “Methods of reducing the risk of cardiovascular events in a subject with atrial fibrillation and/or atrial flutter” (priority 2019, dated 2025):
Read-outs that look alike come from different tables or passages of the source.

System: hypertriglyceridemic patients with cardiovascular disease or at high risk for cardiovascular disease
Settings: human, in vivo
Experimental: The following clinical events that were positively adjudicated by the Clinical Endpoint Committee were analyzed as tertiary endpoints for the ITT intent-to-treat (ITT) population: • Composition of total mortality, or congestive heart failure (CHF); • Composite of CV death, or new CHF; • Sudden cardiac death; • Peripheral artery disease (PAD); and • Atrial fibrillation, or atrial flutter.
Definition of Cardiac Arrhythmia Requiring Hospitalization: An arrhythmia that either results in hospitalization (≥24 hours) during or within 24 hours of the termination of the last episode for treatment or requires continued hospitalization for treatment, including any one of the following: • Atrial arrhythmia—atrial fibrillation, atrial flutter, supraventricular tachycardia that requires cardio-version, drug therapy, or is sustained for greater than 1 minute; • Ventricular arrhythmia—Ventricular tachycardia or ventricular fibrillation requiring cardio-version and/or intravenous antiarrhythmics; and/or • Bradyarrhythmia—High-level AV block (defined as third-degree AV block or second-degree AV block), junctional or ventricular escape rhythm, or severe sinus bradycardia (typically with heart rate <30 bpm). The bradycardia must require temporary or permanent pacing.
The objective of the following study was to determine how icosapent ethyl affected the incidence of atrial fibrillation and/or flutter in patients from the REDUCE-IT trial, as described in Example 1.
Although not pre-specified as TEAEs of special interest, atrial fibrillation and atrial flutter were also explored post hoc as potential safety signals as discussed above in Example 7. A summary of TEAEs and SAEs of atrial fibrillation/flutter is presented in Table 83, along with positively adjudicated atrial fibrillation/flutter requiring hospitalization of ≥24 hours as a comprehensive compilation of all documented post-randomization occurrences of these atrial arrhythmias. Occurrences of atrial fibrillation or flutter not meeting endpoint criteria (i.e., not positively adjudicated as endpoints) were counted as TEAEs or SAEs, per seriousness criteria.

Q: For `CC/C=C\C/C=C\C/C=C\C/C=C\C/C=C\CCCC(=O)OCC` [AMR101, eicosapentaenoic acid ethyl ester], which “Adjudicated as Bradycardia/Heart Block (without Hosp. ≥24 hrs), patients (%)” value is on record?
A: (0.0) %

Q: What about the “Adjudicated as VTA/F (without Hosp. ≥24 hrs), patients (%)” value of the same compound?
A: (0.0) %

Q: What about the “Atrial fibrillation TEAE, Event Rate” value of the same compound?
A: 5.3%

Q: And the “Atrial fibrillation TEAE, Number of Subjects” value?
A: 215

Q: And the “Atrial fibrillation and/or flutter adverse events, SAEs” value?
A: 0.5%

Q: What about the “Atrial fibrillation and/or flutter adverse events, TEAEs” value of the same compound?
A: 5.8%

Q: And the “Atrial fibrillation or atrial flutter requiring hospitalization of ≥24 hours, patients with event” value?
A: 3.1%

Q: What about the “Atrial fibrillation/flutter AEs, %” value of the same compound?
A: (7.7) %

Q: What about the “Atrial fibrillation/flutter AEs, (%)” value of the same compound?
A: 5.8%

Q: What about the “Atrial fibrillation/flutter SAEs (not positively adjudicated as endpoints), patients” value of the same compound?
A: 0.6%

Q: And the “Atrial fibrillation/flutter TEAEs (not positively adjudicated as endpoints), patients” value?
A: 7.7%

Q: What about the “Positively Adjudicated Atrial Fibrillation/Flutter (requiring hospitalization)” value of the same compound?
A: 127 (3.1%) n (%)

Q: And the “Positively adjudicated Afib/Aflutter requiring ≥24 hours hospitalization, (%)” value?
A: 3.1%

Q: What about the “Positively adjudicated atrial fibrillation/flutter requiring ≥24 hours hospitalization, %” value of the same compound?
A: (3.1) %

Q: What about the “Serious Afib/Aflutter AEs, (%)” value of the same compound?
A: 0.5%

Q: And the “Serious atrial fibrillation/flutter AEs, %” value?
A: (0.6) %

Q: What about the “Subjects with at least one Atrial Fibrillation/Atrial Flutter event” value of the same compound?
A: 321

Q: And the “Treatment-emergent atrial fibrillation (Serious), Event Rate” value?
A: 0.5%

Q: What about the “Treatment-emergent atrial fibrillation (Serious), Number of Subjects” value of the same compound?
A: 21

Q: What about the “Treatment-emergent atrial fibrillation, Event Rate” value of the same compound?
A: 5.3%

Q: And the “Treatment-emergent atrial fibrillation, Number of Subjects” value?
A: 215

Q: And the “Treatment-emergent atrial flutter (Serious), Event Rate” value?
A: 0.0%

Q: What about the “Treatment-emergent atrial flutter (Serious), Number of Subjects” value of the same compound?
A: 1

Q: And the “Treatment-emergent atrial flutter, Event Rate” value?
A: 0.8%

Q: What about the “Treatment-emergent atrial flutter, Number of Subjects” value of the same compound?
A: 32

Q: And the “First onset of atrial fibrillation and/or flutter, Icosapent Ethyl-Placebo Risk Diff., % (95% CI)” value (shortened to “First onset … (95% CI)”) (0.5 years)?
A: −0.00%

Q: What about the “First onset … (95% CI)” value (1 year) of the same compound?
A: 0.20%

Q: What about the “First onset … (95% CI)” value (1.5 years) of the same compound?
A: 0.51%

Q: What about the “First onset … (95% CI)” value (2 years) of the same compound?
A: 0.59%

Q: What about the “First onset … (95% CI)” value (2.5 years) of the same compound?
A: 0.78%

Q: What about the “First onset … (95% CI)” value (3 years) of the same compound?
A: 0.83%

Q: What about the “First onset … (95% CI)” value (3.5 years) of the same compound?
A: 1.17%

Q: What about the “First onset … (95% CI)” value (4 years) of the same compound?
A: 1.23%

Q: What about the “First onset … (95% CI)” value (4.5 years) of the same compound?
A: 1.00%

Q: And the “First onset … (95% CI)” value (5 years)?
A: 1.08%

Q: And the “First onset … (95% CI)” value (5.5 years)?
A: 1.00%

Q: And the “Positively adjudicated atrial fibrillation and/or flutter, incidence” value (6 months)?
A: 0.3%

Q: What about the “First onset … (95% CI)” value (6 years) of the same compound?
A: 2.07%
